Results on one compound are retold here after KR20110060529A, “시클로헥산 디카르복실산 유도체를 함유하는 피부 외용제 조성물” ((주)아모레퍼시픽, priority 2009, dated 2011).

What all share (type): in vitro ADME, guinea pig
Series [1] can be described thus: Test Example 3: skin absorption of arbutin (Franz permeation cell, HPLC).
Series [2] is described as follows: Test Example 2: skin absorption of ascorbyl glucoside (Franz permeation cell, HPLC).
The nature of series [3]: Test Example 4: skin absorption of vitamin A (retinoic acid) (Franz permeation cell, HPLC).

Take `CCOCCOCCOC(=O)C1CCC(C(=O)OCCOCCOCC)CC1` (stereo not drawn) [시클로헥산 디카르복실산 유도체, Bis-Ethoxydiglycol Cyclohexane 1,4-Dicarboxylate]: in series [1], the “increase in skin absorption of arbutin” value was 5~6 fold. Moreover, the “increase in skin absorption of ascorbyl glucoside” value in series [2] is reported as 5~6 fold. The “increase in skin absorption of retinoic acid” value in series [3] was 2~3 fold.
